Values quoted from earlier work as cited in patent US9399025B2, “Modified release dosage forms of skeletal muscle relaxants” (APTALIS PHARMATECH, INC., priority 2003, dated 2016).

Structure (SMILES): CN(C)CCC=C1c2ccccc2C=Cc2ccccc21 [Cyclobenzaprine]
- Elimination half-life (after oral administration): one to three
- Absorption after oral administration (oral): well absorbed
